# Reference: patent US5047419A, “Photodynamic therapy of glioma or mammary carcinoma using seleno- or telluropyrylium salts” (Eastman Kodak Company, priority 1988, dated 1991)
# Like-named read-outs stand apart in the source and are kept apart here.
# What was measured:
# [1] = Quantum efficiency of singlet oxygen generation in air-saturated solution; format: physicochemical; details: air-saturated solution
# From the text: (§1) The ability of the dyes of this invention to function as a cancer-treating agent is in part a reflection of the ability of the dye to generate singlet oxygen in air-saturated solution. (As used herein, "air-saturated solution" means a solution of dye exposed to the atmosphere.) In studying a variety of chalcogenopyrylium dyes, only those dyes containing a selenium or tellurium atom show any appreciable generation of singlet oxygen upon irradiation. Fortuitously, selenopyrylium and telluropyrylium dyes have absorption maxima that are shifted to the red relative to their pyrylium and thiopyrylium analogues. That is, not only are these dyes effective in killing cancer cells because of their high quantum efficiency, but also they generally operate at the most preferred wavelengths, namely those of 700 nm or longer. Table III contains examples of chalcogenopyrylium dyes, their quantum efficiencies for singlet oxygen generation, and their absorption maxima. (In this Table, Ph=Phenyl, Me=Methyl, and t-Bu=tertiary butyl.)
# [2] = system: B-16 melanoma (mouse melanoma); test: In vitro photodynamic therapy, B-16 cells; format: cell-based; details: Mus musculus
# Procedure: (§2) Several selenopyrylium dyes and telluropyrylium dyes from Table I that generated singlet oxygen upon irradiation in air-saturated methanol were examined in vitro in mammalian cell cultures for their effectiveness as agents for photodynamic therapy. […] As controls, HSK1 (normal human skin fibroblasts) and CV-1 (normal monkey kidney cells) were used.
# (§3) In vitro cell cultures were grown in antibiotic-free growth medium DMEM-F12 supplemented to 10% with fetal bovine serum and adjusted to 4.5 mM with L-glutamine. DMEM-F12 is a 1:1 mixture of Dulbecco's modified Eagle's medium (Gibco) and Ham's nutrient mixture F12 (Gibco). Prior to cell seeding, multi-well plates were blackened with spray paint, coating the external walls of each well to minimize light scattering from well to well. Subconfluent cell cultures were trypsinized and plated at a concentration of 10^5 cells per 2 cm^2 well. Cells were allowed to incubate overnight at 37° C. in a humidified atmosphere before dye and/or light exposure.
# (§4) Stock solutions of the chalcogenopyrylium dyes were prepared at 1 mM concentration by sonication in 95% ethanol in the dark. These stock solutions were diluted with growth medium to the desired concentration. Dyes were protected from light throughout the entire experimental procedure until the time for irradiation. Standard treatment time for dye exposure was 1 hour. The dye containing medium was replaced with fresh growth medium prior to irradiation. Eighteen to twenty-four hours later, the remaining metabolically active cells were evaluated by the MTT colorimetric assay and/or cell counting. Assays were performed in triplicate with standard deviations generally of less than 10%. Percent kill was determined from mean optical density of the treated samples and that of the control (untreated) samples for the MTT analysis and from mean cell counts for these two groups for the cell-counting method. (See Table V).
# (§5) Near-infrared and visible light from three sources were employed in these assays. Tungsten light (100-200 mW) was used to assess low milliwatt multiple wavelength effects. An argon-pumped dye laser (Model 150 Aurora, Cooper Lasersonics, Inc., Santa Clara, Calif.) with laser dye LDS 751 (Exciton Chemical Co., Inc., Dayton, Ohio) and a peak wavelength of 785±5 nm was coupled by a […] quartz fiberoptic to a microlens assembly that gave a uniform mode of distribution of light intensity. Thirdly, a laser diode (Model 2430-H2, Spectra Diode Laboratories, Inc., San Jose, Calif. with a fixed wavelength of 800±2 nm provided light energy in the near infrared. The diode was coupled by a 400 μm quartz fiberoptic with a clear and polished end. For laser irradiation experiments, the distance of the fiber tip from the well bottom was adjusted so that the laser irradiation exactly covered the 2 cm^2 target area. A distal power meter (Model 2000, Coherent, Inc., Auburn, Calif.) was used to determine the energy output of the laser source.
# [3] = In vitro photodynamic therapy, B-16 cells; format: cell-based, mouse; details: mouse, b-16 melanoma cells, dark, read-out: % Surviving Fraction, Dark; for viability at 1 µM: B-16, 1 × 10^-6 M
# Procedure: as §2, §3, §4, §5
# [4] = system: CV-1 (normal monkey kidney cells); test: In vitro photodynamic treatment, control CV-1 cells; format: cell-based; details: Primates
# Procedure: as §2, §3, §4, §5
# [5] = as above; format: cell-based, monkey; details: monkey, cv-1 kidney cells, dark, read-out: % Surviving Fraction, Dark; for viability at 1 µM: CV1, 1 × 10^-6 M
# Procedure: as §2, §3, §4, §5
# [6] = Absorption maxima (λmax) of chalcogenopyrylium dyes; format: physicochemical
# From the text: as §1
# [7] = In vitro photodynamic therapy, FADU cells; format: cell-based, human; details: human, fadu squamous cell carcinoma, FADU, dark, read-out: % Surviving Fraction, Dark; for viability at 1 µM: 1 × 10^-6 M
# Procedure: as §2, §3, §4, §5
# [8] = system: FADU (human squamous cell carcinoma); test: In vitro photodynamic therapy, FADU cells; format: cell-based; details: Homo sapiens, read-out: % Surviving Fraction, Light
# Procedure: as §2, §3, §4, §5
# [9] = system: U251 (human glioma); test: In vitro photodynamic therapy, U251 cells; format: cell-based; details: Homo sapiens, U-251, read-out: % Surviving Fraction, Light; for viability at 1 µM: U251, 1 × 10^-6 M; for viability at 0.1 µM: U251, 1 × 10^-7 M
# Procedure: as §2, §3, §4, §5
# [10] = In vitro photodynamic therapy, U251 cells; format: cell-based, human; details: human, u251 glioma cells, dark, read-out: % Surviving Fraction, Dark; for viability at 1 µM: U251, 1 × 10^-6 M; for viability at 0.1 µM: U251, 1 × 10^-7 M
# Procedure: as §2, §3, §4, §5
# [11] = In vitro photodynamic treatment, control HSK1 cells; format: cell-based, human; details: human, hsk1 skin fibroblasts, dark, read-out: % Surviving Fraction, Dark; for viability at 0.1 µM: HSK1, 1 × 10^-7 M
# Procedure: as §2, §3, §4, §5
# [12] = system: HSK1 (normal human skin fibroblasts); test: as above; format: cell-based; details: Homo sapiens, Skin fibroblast, read-out: % Surviving Fraction, Light; for viability at 0.1 µM: HSK1, 1 × 10^-7 M
# Procedure: as §2, §3, §4, §5
# [13] = Stability in solution; format: physicochemical
# [14] = B16, read-out: % Surviving Fraction, Light
# [15] = CV-1, read-out: % Surviving Fraction, Light
# [16] = 15 J cm^-2, source A (tungsten)
# [17] = 50 J cm^-2, source A (tungsten)
structure (smiles),measurement,setting,value
"CC(C)(C)C1=CC(=CC=Cc2cc(C(C)(C)C)[o+]c(C(C)(C)C)c2)C=C(C(C)(C)C)O1.[Cl-] [C.E. 3, 2,6-Di-t-butyl-4-[3-(2,6-di-t-butyl-4H-pyran-4-ylidene)-1-propen-1-yl]pyrylium chloride, reference compound]",Quantum efficiency of singlet oxygen generation Φ(1O2),[1],≤ 0.001
same,viability at 1 µM,"[2]; B16, B-16, 1 × 10^-6 M, 27 J cm^-2, source D (tungsten, 500 nm cutoff), read-out: % Surviving Fraction, Light",99%
same,viability at 1 µM,[3],99%
same,viability at 1 µM,"[4]; CV-1, CV1, 1 × 10^-6 M, 27 J cm^-2, source D (tungsten, 500 nm cutoff), read-out: % Surviving Fraction, Light",99%
same,viability at 1 µM,[5],100%
same,Absorption maximum λmax,[6]; H2O,595 nm
same,viability at 1 µM,[7],99%
same,viability at 1 µM,"[8]; FADU, 1 × 10^-6 M, 27 J cm^-2, source D (tungsten, 500 nm cutoff)",99%
CC(C)(C)C1=CC(=CC=Cc2cc(C(C)(C)C)[se+]c(C(C)(C)C)c2)C=C(C(C)(C)C)[Te]1 [Dye 1],Quantum efficiency of singlet oxygen generation Φ(1O2),[1],0.09
same,viability at 0.05 µM,[2]; [14],0.03%
same,viability at 0.05 µM,"[3]; B-16, 5 × 10^-8 M",99%
same,viability at 0.05 µM,"[9]; U251, 5 × 10^-8 M, 15 J cm^-2, source C (diode laser 800 nm)",65%
same,viability at 0.05 µM,"[10]; U251, 5 × 10^-8 M",85%
same,viability at 0.05 µM,[4]; [15],99%
same,viability at 0.05 µM,"[5]; CV1, 5 × 10^-8 M",100%
same,Absorption maximum λmax,[6]; CH2Cl2,786 nm
same,viability at 0.05 µM,"[11]; HSK1, 5 × 10^-8 M",99%
same,viability at 0.05 µM,"[12]; HSK1, 5 × 10^-8 M, 15 J cm^-2, source C (diode laser 800 nm)",97%
same,viability at 0.05 µM,[7]; 5 × 10^-8 M,99%
same,viability at 0.05 µM,[8]; FaDu,0.1%
CC(C)(C)C1=CC(=CC=Cc2cc(C(C)(C)C)[te+]c(C(C)(C)C)c2)C=C(C(C)(C)C)[Te]1 [Dye 4],Quantum efficiency of singlet oxygen generation Φ(1O2),[1],0.13
same,viability at 1 µM,[2]; [14],30%
same,viability at 1 µM,[3],99%
same,viability at 1 µM,"[9]; 50 J cm^-2, source B (dye laser 785 nm)",75%
same,viability at 1 µM,[10],100%
same,viability at 1 µM,[4]; [15],95%
same,viability at 1 µM,[5],99%
same,Absorption maximum λmax,[6]; CH2Cl2,830 nm
CC(C)(C)C1=CC(=CC=Cc2cc(C(C)(C)C)[o+]c(C(C)(C)C)c2)C=C(C(C)(C)C)[Te]1 [Dye 5],Quantum efficiency of singlet oxygen generation Φ(1O2),[1],0.06
same,viability at 0.1 µM,[2]; [14],0.1%
same,viability at 0.1 µM,"[3]; B-16, 1 × 10^-7 M",99%
same,viability at 0.1 µM,[9]; [16],58%
same,viability at 0.1 µM,[10],90%
same,viability at 0.1 µM,[4]; [15],99%
same,viability at 0.1 µM,"[5]; CV1, 1 × 10^-7 M",100%
same,Absorption maximum λmax,[6]; H2O,700 nm
same,viability at 0.1 µM,[11],99%
same,viability at 0.1 µM,[12]; [16],99%
same,viability at 0.1 µM,[7]; 1 × 10^-7 M,99%
same,viability at 0.1 µM,[8]; FaDu,0.05%
CC(C)(C)C1=CC(=CC=Cc2cc(C(C)(C)C)[o+]c(C(C)(C)C)c2)C=C(C(C)(C)C)[Se]1 [Dye 9],Quantum efficiency of singlet oxygen generation Φ(1O2),[1],0.005
same,viability at 1 µM,[2]; [14],0.2%
same,viability at 1 µM,[3],99%
same,viability at 1 µM,[4]; [15],99%
same,viability at 1 µM,[5],100%
same,Absorption maximum λmax,[6]; H2O,660 nm
same,viability at 1 µM,[7],99%
same,viability at 1 µM,[8]; FaDu,0.2%
CC(C)(C)C1=CC(=Cc2cc(C(C)(C)C)[te+]c(C(C)(C)C)c2)C=C(C(C)(C)C)[Te]1 [Dye 12],Quantum efficiency of singlet oxygen generation Φ(1O2),[1],0.07
same,viability at 1 µM,[9]; [17],1%
same,viability at 0.1 µM,[9]; [17],74%
same,viability at 1 µM,[10],55%
same,viability at 0.1 µM,[10],83%
same,Absorption maximum λmax,[6]; H2O,705 nm
same,viability at 0.1 µM,[11],100%
same,viability at 0.1 µM,[12]; [17],99%
C(=CC=C1C=C(c2ccccc2)[Te]C(c2ccccc2)=C1)C=Cc1cc(-c2ccccc2)[te+]c(-c2ccccc2)c1 [Dye 16],Quantum efficiency of singlet oxygen generation Φ(1O2),[1],0.005
same,Stability in solution,[13],tended to be unstable in solution
same,Absorption maximum λmax,[6]; MeOH,1060 nm
